From PubChem BioAssay AID1963845 (Molecular Pharmacology Branch, DTP, NCI, 2024)

Tested on: 429239-143-T-J1-PDC complex spheroid viability
Assay: Anticancer human tumor 429239-143-T-J1-PDC patient-derived small cell lung carcinoma cell line growth inhibition [POLQ]
Details: for IC50: curve of first compound; for viability, T/C: stronger effect = lower value
Summary of the method: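 Complex spheroid viability model combining PDC tumour cells with endothelial (HUVEC) and MSC stromal cells. Novobiocin, ART-558 or RP6685 were tested singly and in combination with standard and investigational anticancer drugs. Each was titrated in half-log steps from near clinical Cmax, or from 10 microM where Cmax was unknown.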

[1] = second compound 0.0316 µM, first compound 0.00316 µM
[2] = second compound 0.0316 µM, first compound 0.01 µM
[3] = second compound 0.0316 µM, first compound 0.0316 µM
[4] = second compound 0.0316 µM, first compound 0.1 µM
[5] = second compound 0.0316 µM, first compound 0.316 µM
[6] = second compound 0.0316 µM, first compound 1 µM
[7] = second compound 0.1 µM, first compound 0.00316 µM
[8] = second compound 0.1 µM, first compound 0.01 µM
[9] = second compound 0.1 µM, first compound 0.0316 µM
[10] = second compound 0.1 µM, first compound 0.1 µM
[11] = second compound 0.1 µM, first compound 0.316 µM
[12] = second compound 0.1 µM, first compound 1 µM
[13] = second compound 0.316 µM, first compound 0.00316 µM
[14] = second compound 0.316 µM, first compound 0.01 µM
[15] = second compound 0.316 µM, first compound 0.0316 µM
[16] = second compound 0.316 µM, first compound 0.1 µM
[17] = second compound 0.316 µM, first compound 0.316 µM
[18] = second compound 0.316 µM, first compound 1 µM
[19] = second compound 1 µM, first compound 0.00316 µM
[20] = second compound 1 µM, first compound 0.01 µM
[21] = second compound 1 µM, first compound 0.0316 µM
[22] = second compound 1 µM, first compound 0.1 µM
[23] = second compound 1 µM, first compound 0.316 µM
[24] = second compound 1 µM, first compound 1 µM
[25] = second compound 3.16 µM, first compound 0.00316 µM
[26] = second compound 3.16 µM, first compound 0.01 µM
[27] = second compound 3.16 µM, first compound 0.0316 µM
[28] = second compound 3.16 µM, first compound 0.1 µM
[29] = second compound 3.16 µM, first compound 0.316 µM
[30] = second compound 3.16 µM, first compound 1 µM
[31] = second compound 10 µM, first compound 0.00316 µM
[32] = second compound 10 µM, first compound 0.01 µM
[33] = second compound 10 µM, first compound 0.0316 µM
[34] = second compound 10 µM, first compound 0.1 µM
[35] = second compound 10 µM, first compound 0.316 µM
[36] = second compound 10 µM, first compound 1 µM
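Further: luminescence signal used as surrogate measure of viable cells; spheroids exposed to compounds for seven days before readout.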
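Wherever viability, T/C is given: 100% = DMSO vehicle control viability as luminescence relative to vehicle.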

`C=CCn1c(=O)c2cnc(Nc3ccc(N4CCN(C)CC4)cc3)nc2n1-c1cccc(C(C)(C)O)n1` + Cc1cccc(N(C)C(=O)C2C(O)CCN2c2nc(C)cc(C(F)(F)F)c2C#N)c1 was tested, and the IC50 (second compound 0.0316 µM) was 644 nM, the IC50 (second compound 0.1 µM) was 637 nM and the IC50 (second compound 0.316 µM) was 593 nM. It also gave an IC50 (second compound 1 µM) of 587 nM, an IC50 (second compound 3.16 µM) of 609 nM and an IC50 (second compound 10 µM) of 642 nM. The viability, T/C [1] was 106%, the viability, T/C [2] was 110% and the viability, T/C [3] was 103%. It also gave a viability, T/C [4] of 95.1%, a viability, T/C [5] of 103% and a viability, T/C [6] of 17%. The viability, T/C [7] was 105%, the viability, T/C [8] was 105% and the viability, T/C [9] was 97.5%. The viability, T/C [10] was 102%, the viability, T/C [11] was 103% and the viability, T/C [12] was 16.1%. It also gave a viability, T/C [13] of 109%, a viability, T/C [14] of 106% and a viability, T/C [15] of 106%. For the same molecule, the viability, T/C [16] was 116%, the viability, T/C [17] was 91.1% and the viability, T/C [18] was 16.1%. For the same molecule, the viability, T/C [19] was 107%, the viability, T/C [20] was 100% and the viability, T/C [21] was 103%. For the same molecule, the viability, T/C [22] was 111%, the viability, T/C [23] was 89.6% and the viability, T/C [24] was 16%. It also gave a viability, T/C [25] of 108%, a viability, T/C [26] of 102% and a viability, T/C [27] of 97.7%. It also gave a viability, T/C [28] of 111%, a viability, T/C [29] of 93.3% and a viability, T/C [30] of 16.7%. The viability, T/C [31] was 118%, the viability, T/C [32] was 113% and the viability, T/C [33] was 113%. It also gave a viability, T/C [34] of 100%, a viability, T/C [35] of 104% and a viability, T/C [36] of 16.6%.

Molecule `Cn1ncnc1[C@H]1c2n[nH]c(=O)c3cc(F)cc(c23)N[C@@H]1c1ccc(F)cc1` + COC1C(OC(N)=O)C(O)C(Oc2ccc3c(O)c(NC(=O)c4ccc(O)c(CC=C(C)C)c4)c(=O)oc3c2C)OC1(C)C has an IC50 (second compound 0.0316 µM) of 24.5 nM, an IC50 (second compound 0.1 µM) of 13.9 nM and an IC50 (second compound 0.316 µM) of 23.4 nM. The IC50 (second compound 1 µM) was 15.4 nM, the IC50 (second compound 3.16 µM) was 13.7 nM and the IC50 (second compound 10 µM) was 14.3 nM. For the same molecule, the viability, T/C (second compound 0.0316 µM, first compound 0.000316 µM) was 97.7%, the viability, T/C (second compound 0.0316 µM, first compound 0.001 µM) was 89.6% and the viability, T/C [1] was 83.6%. For the same molecule, the viability, T/C [2] was 62.6%, the viability, T/C [3] was 47% and the viability, T/C [4] was 27.8%. The viability, T/C (second compound 0.1 µM, first compound 0.000316 µM) was 104%, the viability, T/C (second compound 0.1 µM, first compound 0.001 µM) was 105% and the viability, T/C [7] was 84.6%. The viability, T/C [8] was 51.5%, the viability, T/C [9] was 45.5% and the viability, T/C [10] was 27.8%. The viability, T/C (second compound 0.316 µM, first compound 0.000316 µM) was 94.2%, the viability, T/C (second compound 0.316 µM, first compound 0.001 µM) was 92.4% and the viability, T/C [13] was 88.7%. It also gave a viability, T/C [14] of 64.5%, a viability, T/C [15] of 45.7% and a viability, T/C [16] of 22.8%. For the same molecule, the viability, T/C (second compound 1 µM, first compound 0.000316 µM) was 98.4%, the viability, T/C (second compound 1 µM, first compound 0.001 µM) was 93.5% and the viability, T/C [19] was 82.9%. The viability, T/C [20] was 57.6%, the viability, T/C [21] was 36.8% and the viability, T/C [22] was 25.4%. It also gave a viability, T/C (second compound 3.16 µM, first compound 0.000316 µM) of 92.1%, a viability, T/C (second compound 3.16 µM, first compound 0.001 µM) of 90% and a viability, T/C [25] of 77.7%. For the same molecule, the viability, T/C [26] was 58.1%, the viability, T/C [27] was 31.5% and the viability, T/C [28] was 27.8%. For the same molecule, the viability, T/C (second compound 10 µM, first compound 0.000316 µM) was 89.5%, the viability, T/C (second compound 10 µM, first compound 0.001 µM) was 90.9% and the viability, T/C [31] was 78.9%. For the same molecule, the viability, T/C [32] was 53.4%, the viability, T/C [33] was 39.6% and the viability, T/C [34] was 25.1%.

In the case of `O=C(Nc1ccc(O)c(NS(=O)(=O)c2ccc(F)cc2)c1)c1ccc(-c2ccccc2)cc1` + Nc1ccc(C#CCN(C(=O)Cc2ncc(C(F)(F)F)cc2C(F)(F)F)c2ccc(F)cc2)nn1, the IC50 (second compound 0.0316 µM) is reported as greater than 10000 nM, the IC50 (second compound 0.1 µM) is reported as greater than 10000 nM and the IC50 (second compound 0.316 µM) is reported as greater than 10000 nM. For the same molecule, the IC50 (second compound 1 µM) was greater than 10000 nM, the IC50 (second compound 3.16 µM) was greater than 10000 nM and the IC50 (second compound 10 µM) was greater than 10000 nM. The viability, T/C [3] was 102%, the viability, T/C [4] was 106% and the viability, T/C [5] was 89.5%. For the same molecule, the viability, T/C [6] was 105%, the viability, T/C (second compound 0.0316 µM, first compound 3.16 µM) was 106% and the viability, T/C (second compound 0.0316 µM, first compound 10 µM) was 110%. It also gave a viability, T/C [9] of 105%, a viability, T/C [10] of 109% and a viability, T/C [11] of 112%. It also gave a viability, T/C [12] of 106%, a viability, T/C (second compound 0.1 µM, first compound 3.16 µM) of 109% and a viability, T/C (second compound 0.1 µM, first compound 10 µM) of 99%. For the same molecule, the viability, T/C [15] was 111%, the viability, T/C [16] was 103% and the viability, T/C [17] was 104%. The viability, T/C [18] was 108%, the viability, T/C (second compound 0.316 µM, first compound 3.16 µM) was 116% and the viability, T/C (second compound 0.316 µM, first compound 10 µM) was 98.2%. It also gave a viability, T/C [21] of 115%, a viability, T/C [22] of 109% and a viability, T/C [23] of 95.8%. For the same molecule, the viability, T/C [24] was 106%, the viability, T/C (second compound 1 µM, first compound 3.16 µM) was 113% and the viability, T/C (second compound 1 µM, first compound 10 µM) was 109%. It also gave a viability, T/C [27] of 107%, a viability, T/C [28] of 103% and a viability, T/C [29] of 103%. For the same molecule, the viability, T/C [30] was 101%, the viability, T/C (second compound 3.16 µM, first compound 3.16 µM) was 97.1% and the viability, T/C (second compound 3.16 µM, first compound 10 µM) was 106%. The viability, T/C [33] was 102%, the viability, T/C [34] was 96.6% and the viability, T/C [35] was 103%. For the same molecule, the viability, T/C [36] was 93.7%, the viability, T/C (second compound 10 µM, first compound 3.16 µM) was 95.1% and the viability, T/C (second compound 10 µM, first compound 10 µM) was 96.3%.
